Earlier results as cited in article PMC8007111, “Novel Potent Muscarinic Receptor Antagonists: Investigation on the Nature of Lipophilic Substituents in the 5- and/or 6-Positions of the 1,4-Dioxane Nucleus” (Journal of Medicinal Chemistry, 2020).

Key:
Conditions in all cases: cited from earlier work
hM1 mAChR = target: T1, hM1 mAChR (Homo sapiens, UniProt P11229)
T1 construct: expressed in transfected cells; host or cells: CHO-K1 (membrane preparation)
T1 sequence (P11229 1-460): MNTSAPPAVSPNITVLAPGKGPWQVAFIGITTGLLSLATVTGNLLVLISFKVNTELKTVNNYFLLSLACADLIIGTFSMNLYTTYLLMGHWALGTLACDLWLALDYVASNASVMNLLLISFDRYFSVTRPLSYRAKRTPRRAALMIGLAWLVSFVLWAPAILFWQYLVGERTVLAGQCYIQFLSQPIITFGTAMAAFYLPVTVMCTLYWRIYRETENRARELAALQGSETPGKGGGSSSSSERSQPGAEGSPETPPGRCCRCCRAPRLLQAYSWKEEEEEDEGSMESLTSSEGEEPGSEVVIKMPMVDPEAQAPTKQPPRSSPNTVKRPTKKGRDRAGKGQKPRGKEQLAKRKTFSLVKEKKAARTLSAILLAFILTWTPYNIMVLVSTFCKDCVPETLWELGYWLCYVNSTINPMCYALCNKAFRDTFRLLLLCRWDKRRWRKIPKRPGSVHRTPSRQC

hM2 mAChR = target: T2, hM2 mAChR (Homo sapiens, UniProt P08172)
T2 construct: expressed in transfected cells; host or cells: CHO-K1 (membrane preparation)
T2 sequence (P08172 1-466): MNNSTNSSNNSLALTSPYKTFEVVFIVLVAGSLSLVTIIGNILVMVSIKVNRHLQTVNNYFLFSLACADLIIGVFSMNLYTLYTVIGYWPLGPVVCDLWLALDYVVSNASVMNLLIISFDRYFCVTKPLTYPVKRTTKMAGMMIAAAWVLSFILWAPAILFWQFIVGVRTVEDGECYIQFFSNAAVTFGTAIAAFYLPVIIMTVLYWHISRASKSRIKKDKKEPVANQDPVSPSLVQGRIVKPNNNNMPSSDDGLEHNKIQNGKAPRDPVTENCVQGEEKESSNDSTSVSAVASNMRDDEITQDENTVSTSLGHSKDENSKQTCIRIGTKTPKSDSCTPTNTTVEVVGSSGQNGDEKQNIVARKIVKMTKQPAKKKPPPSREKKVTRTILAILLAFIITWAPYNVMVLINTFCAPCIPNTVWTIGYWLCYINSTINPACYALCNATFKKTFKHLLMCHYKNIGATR

hM3 mAChR = target: T3, hM3 mAChR (Homo sapiens, UniProt P20309)
T3 construct: expressed in transfected cells; host or cells: CHO-K1 (membrane preparation)
T3 sequence (P20309 whole entry): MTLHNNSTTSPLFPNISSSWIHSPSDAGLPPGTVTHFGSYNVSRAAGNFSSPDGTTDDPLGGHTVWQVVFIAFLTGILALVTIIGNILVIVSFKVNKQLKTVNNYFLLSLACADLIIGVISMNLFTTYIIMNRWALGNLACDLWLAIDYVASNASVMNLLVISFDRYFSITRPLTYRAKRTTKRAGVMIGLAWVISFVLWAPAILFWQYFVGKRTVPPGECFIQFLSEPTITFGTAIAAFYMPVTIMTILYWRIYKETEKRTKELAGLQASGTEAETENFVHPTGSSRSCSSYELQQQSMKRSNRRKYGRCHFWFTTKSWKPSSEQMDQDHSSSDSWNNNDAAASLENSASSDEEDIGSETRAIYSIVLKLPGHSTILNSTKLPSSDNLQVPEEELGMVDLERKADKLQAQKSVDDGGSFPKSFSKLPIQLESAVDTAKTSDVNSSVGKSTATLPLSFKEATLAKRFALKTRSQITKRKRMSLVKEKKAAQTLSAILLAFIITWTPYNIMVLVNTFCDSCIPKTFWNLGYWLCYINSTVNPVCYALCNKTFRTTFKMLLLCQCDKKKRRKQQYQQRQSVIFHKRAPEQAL

hM4 mAChR = target: T4, hM4 mAChR (Homo sapiens, UniProt P08173)
T4 construct: expressed in transfected cells; host or cells: CHO-K1 (membrane preparation)
T4 sequence (P08173 1-479): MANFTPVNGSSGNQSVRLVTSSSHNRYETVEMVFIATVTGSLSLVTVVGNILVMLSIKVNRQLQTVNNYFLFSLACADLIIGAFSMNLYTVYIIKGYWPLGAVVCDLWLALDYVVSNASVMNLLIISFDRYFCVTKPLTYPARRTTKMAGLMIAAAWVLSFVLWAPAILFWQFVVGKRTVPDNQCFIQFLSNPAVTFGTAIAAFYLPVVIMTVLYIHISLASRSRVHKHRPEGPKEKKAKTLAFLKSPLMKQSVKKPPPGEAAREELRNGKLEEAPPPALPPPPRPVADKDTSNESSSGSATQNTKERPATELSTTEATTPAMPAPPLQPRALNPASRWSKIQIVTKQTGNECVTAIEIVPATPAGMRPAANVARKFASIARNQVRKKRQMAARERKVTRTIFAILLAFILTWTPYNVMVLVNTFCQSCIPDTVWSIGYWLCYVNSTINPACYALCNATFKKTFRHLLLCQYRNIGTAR

hM5 mAChR = target: T5, hM5 mAChR (Homo sapiens, UniProt P08912)
T5 construct: expressed in transfected cells; host or cells: CHO-K1 (membrane preparation)
T5 sequence (P08912 1-532): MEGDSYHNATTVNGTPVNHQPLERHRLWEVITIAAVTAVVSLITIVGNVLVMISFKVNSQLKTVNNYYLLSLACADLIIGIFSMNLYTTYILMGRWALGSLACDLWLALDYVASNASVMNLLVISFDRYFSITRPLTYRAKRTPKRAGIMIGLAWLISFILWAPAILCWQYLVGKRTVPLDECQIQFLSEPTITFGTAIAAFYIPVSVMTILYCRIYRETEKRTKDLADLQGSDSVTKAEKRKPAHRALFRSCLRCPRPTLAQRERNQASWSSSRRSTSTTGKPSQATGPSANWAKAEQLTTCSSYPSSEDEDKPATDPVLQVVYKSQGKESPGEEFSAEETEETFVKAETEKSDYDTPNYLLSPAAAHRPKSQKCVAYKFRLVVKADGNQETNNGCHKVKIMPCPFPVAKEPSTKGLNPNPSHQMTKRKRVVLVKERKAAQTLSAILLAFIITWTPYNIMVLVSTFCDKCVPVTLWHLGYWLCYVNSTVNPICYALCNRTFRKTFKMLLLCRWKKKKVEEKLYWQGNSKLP

SMILES: O=C(O[C@H]1C[C@H]2CC[C@@H](C1)[N+]21CCCC1)C(O)(c1ccccc1)c1ccccc1 [trospium]
- pKi hM1 (hM1 mAChR): 8.46
- pKi hM2 (hM2 mAChR): 8.94
- pKi hM3 (hM3 mAChR): 8.99
- pKi hM4 (hM4 mAChR): 8.84
- pKi hM5 (hM5 mAChR): 8.22
